The values that follow come from patent publication US9833497B2, “Human originated EGF domain proteins and use of the same” (CHENGDU SOURCEBIO LIMITED-LIABILITY COMPANY, priority 2013, dated 2017).

What all share (type): cell-based
One assay concerns Aeromonas hydrophila. In words: MIC against Gram-negative bacteria: Aeromonas hydrophila. The following applies: 5×10^5 CFU/mL; for MIC against A. hydrophila: Aeromonas hydrophila. A digest of the protocol: (§1)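 Bacteria grown in LB at 37° C with shaking to McFarland 0.5, pelleted and resuspended in fresh LB, then seeded at 5×10^5 CFU/mL per well. Purified recombinant human EGF domain proteins were two-fold serially diluted in triplicate and plates shaken at 37° C, 175 rpm. MIC is the lowest protein concentration with no bacterial growth.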

The test system of a further assay is Klebsiella pneumonia. Put plainly: MIC against Gram-negative bacteria: Klebsiella pneumonia. The settings on record: 5×10^5 CFU/mL; for MIC against K. pneumonia: Klebsiella pneumonia. A digest of the protocol: as §1
In another assay the test system is Pseudomonas aeruginosa. Put plainly: MIC against Gram-negative bacteria: Pseudomonas aeruginosa. The settings on record: 5×10^5 CFU/mL; for MIC against P. aeruginosa: Pseudomonas aeruginosa. A digest of the protocol: as §1
Another assay has as its system Serratia marcescens. Put plainly: MIC against Gram-negative bacteria: Serratia marcescens. The following applies: 5×10^5 CFU/mL; for MIC against S. marcescens: Serratia marcescens. A digest of the protocol:
as §1

In a further assay the test system is E. coli BL21. Put plainly: MIC against Gram-negative bacteria: E. coli BL21. The following applies: 5×10^5 CFU/mL. A digest of the protocol:
as §1

In another assay the test system is Enterobacter cloacae. In words: MIC against Gram-negative bacteria: Enterobacter cloacae. The settings on record: 5×10^5 CFU/mL; for MIC against E. cloacae: Enterobacter cloacae. The method, boiled down:
as §1

The next assay relates to Moraxella catarrhalis. Put plainly: MIC against Gram-negative bacteria: Moraxella catarrhalis. The settings on record: 5×10^5 CFU/mL; for MIC against M. catarrhalis: Moraxella catarrhalis. The method, boiled down:
as §1

A further assay concerns Citrobacter diversus. In words: MIC against Gram-negative bacteria: Citrobacter diversus. The following applies: 5×10^5 CFU/mL; for MIC against C. diversus: Citrobacter diversus. The method, boiled down:
as §1

Another assay relates to Proteus mirabilis. In words: MIC against Gram-negative bacteria: Proteus mirabilis. The settings on record: 5×10^5 CFU/mL; for MIC against P. mirabilis: Proteus mirabilis. The method, boiled down: as §1
The next assay concerns E. coli DH5α. Put plainly: Antibacterial activity: MIC and growth curve against E. coli DH5α in 96-well plate. The settings on record: minimal inhibitory concentration against E. coli DH5α; 96-well plate, 5×10^5 CFU/mL, 37° C., judged after 8 h. A digest of the protocol:
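Log-phase DH5α (OD600 about 0.5, 37° C, 185 rpm in LB) was pelleted, resuspended in fresh LB and seeded at 5×10^5 CFU/mL with recombinant protein at 50, 25 and 12.5 μg/mL (two-fold series), in triplicate. Plates were shaken at 175 rpm, 37° C, and OD600 was read every 30 min. MIC was the lowest concentration with no growth.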

The subject of the next assay is Proteus vulgaris. Put plainly: MIC against Gram-negative bacteria: Proteus vulgaris. The following applies: 5×10^5 CFU/mL; for MIC against P. vulgaris: Proteus vulgaris. A digest of the protocol: as §1
Where [1] appears, read: E. coli BL21, 96-well plate, 37° C., 10 h.

As to “PRT1241 (WSSTCRRPCQCNTAAARCEQATGACVCKPGWWGRRCS; listed as Homo sapiens)”, the “MIC against A. hydrophila” value in the assay with Aeromonas hydrophila (96-well plate, 37° C., 10 h) is 50 µg/mL. Also, the “MIC against K. pneumonia” value with Klebsiella pneumonia (96-well plate, 37° C., 10 h) came out at 50 µg/mL. The “MIC against P. aeruginosa” value in the assay with Pseudomonas aeruginosa (96-well plate, 37° C., 10 h) is 12.5 µg/mL. Also, the “MIC against S. marcescens” value against Serratia marcescens (96-well plate, 37° C., 10 h) stood at 12.5 µg/mL. For the same substance, the “MIC against E. coli BL21” value in the assay on E. coli BL21 (setting [1]) came to 25 µg/mL. Further, the “MIC against E. cloacae” value against Enterobacter cloacae (96-well plate, 37° C., 10 h) amounted to 12.5 µg/mL. For the same substance, the “MIC against M. catarrhalis” value against Moraxella catarrhalis (96-well plate, 37° C., 10 h) is 25 µg/mL. Further, the “MIC against C. diversus” value with Citrobacter diversus (96-well plate, 37° C., 10 h) amounted to 12.5 µg/mL. For the same substance, in the assay on Proteus mirabilis (96-well plate, 37° C., 10 h), the “MIC against P. mirabilis” value turned out to be 50 µg/mL. The MIC in the assay with E. coli DH5α stood at 50 µg/mL. Further, the “MIC against P. vulgaris” value against Proteus vulgaris (96-well plate, 37° C., 10 h) was 25 µg/mL.
Regarding “PRT1238 (IGEACPKLCSGHGYCTTGAICICDESFQGDDCS; listed as Homo sapiens)”, in the assay on Aeromonas hydrophila (96-well plate, 37° C., 10 h), the “MIC against A. hydrophila” value was determined as 12.5 µg/mL. Also, the “MIC against K. pneumonia” value against Klebsiella pneumonia (96-well plate, 37° C., 10 h) is 12.5 µg/mL. The “MIC against P. aeruginosa” value in the assay on Pseudomonas aeruginosa (96-well plate, 37° C., 10 h) came out at 50 µg/mL. Further, in the assay with Serratia marcescens (96-well plate, 37° C., 10 h), the “MIC against S. marcescens” value was determined as 50 µg/mL. Besides, the “MIC against E. coli BL21” value with E. coli BL21 (setting [1]) came out at 12.5 µg/mL. The “MIC against E. cloacae” value against Enterobacter cloacae (96-well plate, 37° C., 10 h) is 50 µg/mL. Also, the “MIC against M. catarrhalis” value in the assay on Moraxella catarrhalis (96-well plate, 37° C., 10 h) is 25 µg/mL. In addition, the “MIC against C. diversus” value in the assay on Citrobacter diversus (96-well plate, 37° C., 10 h) came to 50 µg/mL. Moreover, the “MIC against P. mirabilis” value with Proteus mirabilis (96-well plate, 37° C., 10 h) is 12.5 µg/mL. In addition, the MIC in the assay with E. coli DH5α is 25 µg/mL. Besides, the “MIC against P. vulgaris” value in the assay with Proteus vulgaris (96-well plate, 37° C., 10 h) was determined as 25 µg/mL.
Take “PRT1214 (GRENCTFAPCLEGGTCILSPKGASCNCPHPYTGDRCE; listed as Homo sapiens)”: the “MIC against A. hydrophila” value against Aeromonas hydrophila (96-well plate, 37° C., 10 h) turned out to be 50 µg/mL. The “MIC against K. pneumonia” value against Klebsiella pneumonia (96-well plate, 37° C., 10 h) is 25 µg/mL. The “MIC against P. aeruginosa” value in the assay on Pseudomonas aeruginosa (96-well plate, 37° C., 10 h) stood at 50 µg/mL. Moreover, the “MIC against S. marcescens” value in the assay with Serratia marcescens (96-well plate, 37° C., 10 h) amounted to 25 µg/mL. The “MIC against E. coli BL21” value against E. coli BL21 (setting [1]) was 12.5 µg/mL. The “MIC against E. cloacae” value against Enterobacter cloacae (96-well plate, 37° C., 10 h) came to 12.5 µg/mL. In addition, the “MIC against M. catarrhalis” value with Moraxella catarrhalis (96-well plate, 37° C., 10 h) was determined as 25 µg/mL. The “MIC against C. diversus” value against Citrobacter diversus (96-well plate, 37° C., 10 h) is 12.5 µg/mL. Moreover, in the assay with Proteus mirabilis (96-well plate, 37° C., 10 h), the “MIC against P. mirabilis” value came to 50 µg/mL. In the assay with E. coli DH5α, this substance registered an MIC of 25 µg/mL. The “MIC against P. vulgaris” value against Proteus vulgaris (96-well plate, 37° C., 10 h) came out at 12.5 µg/mL.
In the case of “PRT630 (CQCSGNVDPNAVGNCDPLSGHCLRCLHNTTGDHCEHCQEGFYGSALAPRPADKCMP; listed as Homo sapiens)”, the “MIC A. hydrophila” value in the assay with Aeromonas hydrophila (96-well plate, 37° C., 10 h) was 25 µg/mL. In the assay with Klebsiella pneumonia (96-well plate, 37° C., 10 h), the “MIC K. pneumonia” value turned out to be 25 µg/mL. Also, the “MIC P. aeruginosa” value against Pseudomonas aeruginosa (96-well plate, 37° C., 10 h) was 12.5 µg/mL. The “MIC S. marcescens” value against Serratia marcescens (96-well plate, 37° C., 10 h) came out at 12.5 µg/mL. Besides, the “MIC E. coli BL21” value in the assay with E. coli BL21 (96-well plate, 37° C., 10 h) was 25 µg/mL. For the same substance, the “MIC E. cloacae” value against Enterobacter cloacae (96-well plate, 37° C., 10 h) stood at 12.5 µg/mL. In addition, the “MIC M. catarrhalis” value against Moraxella catarrhalis (96-well plate, 37° C., 10 h) worked out at 25 µg/mL. In addition, the “MIC C. diversus” value in the assay on Citrobacter diversus (96-well plate, 37° C., 10 h) is 12.5 µg/mL. The “MIC P. mirabilis” value in the assay on Proteus mirabilis (96-well plate, 37° C., 10 h) was 12.5 µg/mL. In the assay with E. coli DH5α, this substance yielded an MIC of 50 µg/mL. Besides, the “MIC P. vulgaris” value with Proteus vulgaris (96-well plate, 37° C., 10 h) was determined as 25 µg/mL.
For “PRT144 (DKKVCSSNPCQNGGTCLNLHDSFFCICPPQWKGPLCS; listed as Homo sapiens)”, the “MIC (μg/mL) A. hydrophila” value with Aeromonas hydrophila (A. hydrophila, 10 h cultivation at 37° C.) came to 50 µg/mL. Besides, the “MIC (μg/mL) K. pneumonia” value with Klebsiella pneumonia (K. pneumonia, 10 h cultivation at 37° C.) was determined as 50 µg/mL. Further, the “MIC (μg/mL) P. aeruginosa” value with Pseudomonas aeruginosa (P. aeruginosa, 10 h cultivation at 37° C.) stood at 12.5 µg/mL. For the same substance, the “MIC (μg/mL) S. marcescens” value against Serratia marcescens (S. marcescens, 10 h cultivation at 37° C.) amounted to 12.5 µg/mL. Further, the “MIC (μg/mL) E. coli BL21” value in the assay with E. coli BL21 (E. coli BL21, 10 h cultivation at 37° C.) was 50 µg/mL. Moreover, the “MIC (μg/mL) E. cloacae” value against Enterobacter cloacae (E. cloacae, 10 h cultivation at 37° C.) is 12.5 µg/mL. In addition, the “MIC (μg/mL) M. catarrhalis” value with Moraxella catarrhalis (M. catarrhalis, 10 h cultivation at 37° C.) came out at 12.5 µg/mL. In the assay on Citrobacter diversus (C. diversus, 10 h cultivation at 37° C.), the “MIC (μg/mL) C. diversus” value turned out to be 25 µg/mL. The “MIC (μg/mL) P. mirabilis” value in the assay on Proteus mirabilis (P. mirabilis, 10 h cultivation at 37° C.) stood at 25 µg/mL. Moreover, the MIC in the assay with E. coli DH5α was 25 µg/mL. For the same substance, the “MIC (μg/mL) P. vulgaris” value in the assay on Proteus vulgaris (P. vulgaris, 10 h cultivation at 37° C.) worked out at 50 µg/mL.
